Data as given in US20110045982A1, “HERBICIDAL COMPOSITION” (NOF CORPORATION, priority 2009, published 2011).

These compounds were tested on Japanese white rabbits. Details: hydrolysate of base compound, 50% in purified water, 0.1 mL instilled, three male rabbits; observed 1, 6, 12 and 24 hr.
Procedure: Assuming that the base compound is hydrolyzed in the natural world, the biological reaction of hydrolysate was evaluated by eye irritancy. To be specific, the base compound (10 g) shown in Table 1 was added to 100 mL of water, and the mixture was adjusted to pH 10 with an aqueous sodium hydroxide solution. The mixture was placed in a flask, heated to 80° C., and stirred for 1 hr while adding an aqueous sodium hydroxide solution as appropriate every 10 min to maintain pH 10. The mixture was adjusted to pH 3.5 with an aqueous hydrochloric acid solution, and the mixture was washed 3 times with hexane to remove fatty acid. The solution was neutralized with an aqueous sodium hydroxide solution, evaporated and filtered to remove sodium chloride. The viscous liquid was diluted with purified water to a concentration of 50% and used as an eye irritancy measurement sample.
Using three male Japanese white rabbits per sample, the above-mentioned eye irritancy measurement sample (0.1 mL) was instilled into the unilateral intracapsular conjunctiva of each test animal, and the upper and lower eyelids were gently closed and maintained for about 1 sec. The other eye was used as control without treatment. After instillation, the cornea, iris, conjunctiva and the like were observed 1, 6, 12 and 24 hr later.

Row | SMILES | eye irritancy of hydrolysate
1 | CCCCCCCC(=O)OCC(COC(=O)CCCCCCC)OC(=O)CCCCCCC [Ex. 1, Glycerol tricaprylic acid ester] | no problem
2 | CCCCCCCCCCCC(=O)OCC(O)CO (stereo not drawn) [Ex. 7, Glycerol monolauric acid ester] | no problem
3 | CCCCCCCCC(=O)OCCO [compound 4, ethylene glycol monopelargric acid ester, reference compound] | problematic
